In ChEMBL document CHEMBL3875157, “Neurodegenerative diseases linked to misfolded proteins and their therapeutic approaches: A review” (Eur J Med Chem, 2016) one finds IC50 data, which are given here for one molecule.

SMILES strings stand for the structures.

For this assay, the target named is Acetylcholinesterase (Homo sapiens, UniProt P22303). Nature of the assay: Inhibition of acetylcholinesterase (unknown origin).
Sequence of Acetylcholinesterase (P22303 whole entry): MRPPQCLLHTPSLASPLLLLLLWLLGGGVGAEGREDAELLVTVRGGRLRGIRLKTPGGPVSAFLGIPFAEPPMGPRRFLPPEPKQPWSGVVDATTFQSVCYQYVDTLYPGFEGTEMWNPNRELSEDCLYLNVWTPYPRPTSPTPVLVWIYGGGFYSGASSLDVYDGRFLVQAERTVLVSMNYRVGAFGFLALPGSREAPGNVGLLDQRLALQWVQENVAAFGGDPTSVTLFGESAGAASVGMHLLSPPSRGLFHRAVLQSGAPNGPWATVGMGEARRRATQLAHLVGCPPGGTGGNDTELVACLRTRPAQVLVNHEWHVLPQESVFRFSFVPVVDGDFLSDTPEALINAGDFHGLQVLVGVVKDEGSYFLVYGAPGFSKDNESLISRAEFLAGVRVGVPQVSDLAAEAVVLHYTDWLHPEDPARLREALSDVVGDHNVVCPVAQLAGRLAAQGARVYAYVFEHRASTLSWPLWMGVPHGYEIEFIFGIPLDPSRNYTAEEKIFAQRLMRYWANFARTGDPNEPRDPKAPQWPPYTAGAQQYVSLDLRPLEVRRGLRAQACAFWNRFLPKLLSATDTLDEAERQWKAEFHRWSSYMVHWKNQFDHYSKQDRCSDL

In general, IC50 refers to the concentration needed to halve the response being measured. A higher IC50 goes with weaker potency. Molecule `CCOC(=O)C1=C(C)Oc2nc3c(c(N)c2C1c1ccc(OC)cc1)CCCC3` (stereo unspecified) displayed an IC50 of 182 to 868 nM.
